Like-named read-outs stand apart in the source and are kept apart here.
Tests used:
[1] = Ferric reducing antioxidant power (FRAP) assay; conditions: mean ± standard error of three experiments;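 note: expressed as µM Fe2+ equivalents from an FeSO4·7H2O standard curve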
Summary of the method: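 Compounds at 10 and 100 µM were mixed with FRAP reagent (300 mM acetate buffer pH 3.6, TPTZ in HCl, FeCl3, 10:1:1) and incubated 60 min at 37 °C. Fe^2+-TPTZ formation read at 593 nm against a blank. Values derived from an Fe2SO4·7H2O standard curve, three independent experiments.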

recombinant human AChE = molecular target: T1, recombinant human AChE (Homo sapiens, UniProt P22303); assay: biochemical; assay type: biochemical; conditions: for IS: IS = Ki(BChE)/Ki(AChE), IS > 1 selective to AChE
T1 construct: gift of Dr Florian Nachon (Armed Forces Biomedical Research Institute, Brétigny-sur-Orge, France)
T1 sequence (P22303 32-614): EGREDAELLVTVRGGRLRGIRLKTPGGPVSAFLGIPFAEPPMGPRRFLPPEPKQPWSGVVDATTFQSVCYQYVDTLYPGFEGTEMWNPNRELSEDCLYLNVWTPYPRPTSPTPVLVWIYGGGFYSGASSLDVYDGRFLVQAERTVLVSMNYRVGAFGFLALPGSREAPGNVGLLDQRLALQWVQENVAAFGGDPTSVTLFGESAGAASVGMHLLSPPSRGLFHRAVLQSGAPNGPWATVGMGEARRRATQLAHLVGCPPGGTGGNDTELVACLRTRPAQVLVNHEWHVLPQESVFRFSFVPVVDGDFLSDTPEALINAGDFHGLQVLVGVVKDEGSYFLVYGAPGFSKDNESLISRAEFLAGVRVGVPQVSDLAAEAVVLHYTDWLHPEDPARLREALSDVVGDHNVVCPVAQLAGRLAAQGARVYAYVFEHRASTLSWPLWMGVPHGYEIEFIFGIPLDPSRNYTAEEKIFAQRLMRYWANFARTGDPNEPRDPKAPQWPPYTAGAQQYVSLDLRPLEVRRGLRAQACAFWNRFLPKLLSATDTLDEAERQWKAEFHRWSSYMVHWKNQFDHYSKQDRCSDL
Summary of the method: (§1)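 Modified Ellman assay with acetylthiocholine and DTNB in 0.1 M sodium phosphate pH 7.4 (enzymes diluted with 0.1% BSA), ≤0.2% DMSO, 25 °C. At least three inhibitor concentrations per substrate level; Ki,app from Hunter–Downs equation, Ki from y-intercept and inhibition type from Ki,app vs [S].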

purified human BChE = molecular target: T2, purified human BChE (Homo sapiens, UniProt P06276); assay: biochemical; assay type: biochemical
T2 construct: possibly also a gift of Dr Florian Nachon (the sentence is ambiguous)
T2 sequence (P06276 29-602): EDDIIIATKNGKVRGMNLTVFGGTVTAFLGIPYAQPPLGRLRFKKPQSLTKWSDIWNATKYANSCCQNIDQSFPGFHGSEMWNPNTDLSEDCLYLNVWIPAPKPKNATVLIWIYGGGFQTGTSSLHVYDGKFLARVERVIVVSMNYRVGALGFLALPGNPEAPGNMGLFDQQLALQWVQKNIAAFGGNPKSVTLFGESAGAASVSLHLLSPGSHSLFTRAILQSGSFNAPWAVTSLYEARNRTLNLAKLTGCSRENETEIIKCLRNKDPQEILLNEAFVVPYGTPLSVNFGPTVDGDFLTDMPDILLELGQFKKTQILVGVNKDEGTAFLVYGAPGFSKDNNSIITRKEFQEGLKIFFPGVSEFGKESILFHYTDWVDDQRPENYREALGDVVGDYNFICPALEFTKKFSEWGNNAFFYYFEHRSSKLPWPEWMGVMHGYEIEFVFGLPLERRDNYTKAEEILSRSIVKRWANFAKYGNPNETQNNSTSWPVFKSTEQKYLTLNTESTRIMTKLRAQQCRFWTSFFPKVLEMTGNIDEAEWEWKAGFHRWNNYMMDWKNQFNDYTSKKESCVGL
Summary of the method: as §1

[2] = Reverse-phase thin-layer chromatographic lipophilicity (RF, RM0); assay type: physicochemical; conditions: for RM0: intercept of RM = RM0 + bC; for b: slope of RM = RM0 + bC; for RF, Methanol/Water/Hydrochloric acid (conc.), mobile phase I / RF, Dioxane/Water/Hydrochloric acid (conc.), mobile phase II / RF, Methanol/Water/Hydrochloric acid (conc.), mobile phase II / RF, Acetone/Water/Hydrochloric acid (conc.), mobile phase III / RF, Dioxane/Water/Hydrochloric acid (conc.), mobile phase III / RF, Methanol/Water/Hydrochloric acid (conc.), mobile phase III / RF, Dioxane/Water/Hydrochloric acid (conc.), mobile phase IV / RF, Acetone/Water/Hydrochloric acid (conc.), mobile phase IV / RF, Methanol/Water/Hydrochloric acid (conc.), mobile phase IV / RF, Acetone/Water/Hydrochloric acid (conc.), mobile phase IX / RF, Methanol/Water/Hydrochloric acid (conc.), mobile phase IX / RF, Dioxane/Water/Hydrochloric acid (conc.), mobile phase V / RF, Acetone/Water/Hydrochloric acid (conc.), mobile phase V / RF, Methanol/Water/Hydrochloric acid (conc.), mobile phase V / RF, Dioxane/Water/Hydrochloric acid (conc.), mobile phase VI / RF, Acetone/Water/Hydrochloric acid (conc.), mobile phase VI / RF, Methanol/Water/Hydrochloric acid (conc.), mobile phase VI / RF, Acetone/Water/Hydrochloric acid (conc.), mobile phase VII / RF, Methanol/Water/Hydrochloric acid (conc.), mobile phase VII / RF, Acetone/Water/Hydrochloric acid (conc.), mobile phase VIII / RF, Methanol/Water/Hydrochloric acid (conc.), mobile phase VIII: RP-18 silica; for RF, Methanol/Water/Hydrochloric acid (conc.), mobile phase I: I = 90%MeOH/5%H2O/5%HCl; for RF, Dioxane/Water/Hydrochloric acid (conc.), mobile phase II: II = 80%Dioxane/15%H2O/5%HCl; for RF, Methanol/Water/Hydrochloric acid (conc.), mobile phase II: II = 85%MeOH/10%H2O/5%HCl; for RF, Acetone/Water/Hydrochloric acid (conc.), mobile phase III: III = 70%AC/25%H2O/5%HCl; for RF, Dioxane/Water/Hydrochloric acid (conc.), mobile phase III: III = 70%Dioxane/25%H2O/5%HCl; for RF, Methanol/Water/Hydrochloric acid (conc.), mobile phase III: III = 80%MeOH/15%H2O/5%HCl; for RF, Dioxane/Water/Hydrochloric acid (conc.), mobile phase IV: IV = 60%Dioxane/35%H2O/5%HCl; for RF, Acetone/Water/Hydrochloric acid (conc.), mobile phase IV: IV = 65%AC/30%H2O/5%HCl; for RF, Methanol/Water/Hydrochloric acid (conc.), mobile phase IV: IV = 75%MeOH/20%H2O/5%HCl; for RF, Acetone/Water/Hydrochloric acid (conc.), mobile phase IX: IX = 40%AC/55%H2O/5%HCl; for RF, Methanol/Water/Hydrochloric acid (conc.), mobile phase IX: IX = 50%MeOH/45%H2O/5%HCl; for RF, Dioxane/Water/Hydrochloric acid (conc.), mobile phase V: V = 50%Dioxane/45%H2O/5%HCl; for RF, Acetone/Water/Hydrochloric acid (conc.), mobile phase V: V = 60%AC/35%H2O/5%HCl; for RF, Methanol/Water/Hydrochloric acid (conc.), mobile phase V: V = 70%MeOH/25%H2O/5%HCl; for RF, Dioxane/Water/Hydrochloric acid (conc.), mobile phase VI: VI = 40%Dioxane/55%H2O/5%HCl; for RF, Acetone/Water/Hydrochloric acid (conc.), mobile phase VI: VI = 55%AC/40%H2O/5%HCl; for RF, Methanol/Water/Hydrochloric acid (conc.), mobile phase VI: VI = 65%MeOH/30%H2O/5%HCl; for RF, Acetone/Water/Hydrochloric acid (conc.), mobile phase VII: VII = 50%AC/45%H2O/5%HCl; for RF, Methanol/Water/Hydrochloric acid (conc.), mobile phase VII: VII = 60%MeOH/35%H2O/5%HCl; for RF, Acetone/Water/Hydrochloric acid (conc.), mobile phase VIII: VIII = 45%AC/50%H2O/5%HCl; for RF, Methanol/Water/Hydrochloric acid (conc.), mobile phase VIII: VIII = 55%MeOH/40%H2O/5%HCl
Summary of the method: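 Reverse-phase TLC using mobile phases of methanol, acetone or dioxane with water and hydrochloric acid. Methanol varied in 10% steps; development distance 4.5 cm, ambient temperature (22±2 °C). RF measured and RM0 derived from retention.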

[3] = log (Ki/µM AChE), read-out: Y Measured 1 log(ki)Ache (converted)
[4] = ± standard error, 25 °C, ATCh substrate, read-out: Ki AChE
[5] = logarithm of Ki in µM, BChE, dependent variable of the QSAR model, read-out: Y Measured 2 log(ki)Bche, log (Ki/µM BChE) (converted)
[6] = ± standard error, 25 °C, ATCh substrate, read-out: Ki BChE
[7] = Acetone/Water/Hydrochloric acid (conc.)
[8] = Dioxane/Water/Hydrochloric acid (conc.)
[9] = Methanol/Water/Hydrochloric acid (conc.)

Structure (SMILES)	FRAP ([1]; 10 µM compound) [µM]	FRAP ([1]; 100 µM compound) [µM]	IS (recombinant human AChE)	Ki (recombinant human AChE; [3]) [µM]	Ki (recombinant human AChE; [4]) [µM]	Ki (purified human BChE; [5]) [µM]	Ki (purified human BChE; [6]) [µM]	RM0 [2, 7]	b [2, 7]	RM0 [2, 8]	b [2, 8]	RM0 [2, 9]	b [2, 9]	RF, Methanol/Water/Hydrochloric acid (conc.), mobile phase I [2]	RF, Dioxane/Water/Hydrochloric acid (conc.), mobile phase II [2]	RF, Methanol/Water/Hydrochloric acid (conc.), mobile phase II [2]	RF, Acetone/Water/Hydrochloric acid (conc.), mobile phase III [2]	RF, Dioxane/Water/Hydrochloric acid (conc.), mobile phase III [2]	RF, Methanol/Water/Hydrochloric acid (conc.), mobile phase III [2]	RF, Dioxane/Water/Hydrochloric acid (conc.), mobile phase IV [2]	also measured
Clc1ccc2c(N3CCN(CC45CC6CC(CC(C6)C4)C5)CC3)ccnc2c1 [Compound 20]	2.9 ± 1.1	6.3 ± 1.6	2.7	9.4	9.4 ± 0.4	25.1	25 ± 1	1.432	2.592	0.3825	1.224	1.5449	2.158	0.67	0.75	0.7	0.69	0.76	0.58	0.78	decrease in BChE inhibition vs compound 5 (purified human BChE): up to 275 times; RF, Acetone/Water/Hydrochloric acid (conc.), mobile phase IV [2]: 0.65; RF, Methanol/Water/Hydrochloric acid (conc.), mobile phase IV [2]: 0.56; RF, Acetone/Water/Hydrochloric acid (conc.), mobile phase IX [2]: 0.28; RF, Methanol/Water/Hydrochloric acid (conc.), mobile phase IX [2]: 0.22; RF, Dioxane/Water/Hydrochloric acid (conc.), mobile phase V [2]: 0.63; RF, Acetone/Water/Hydrochloric acid (conc.), mobile phase V [2]: 0.58; RF, Methanol/Water/Hydrochloric acid (conc.), mobile phase V [2]: 0.48; RF, Dioxane/Water/Hydrochloric acid (conc.), mobile phase VI [2]: 0.5; RF, Acetone/Water/Hydrochloric acid (conc.), mobile phase VI [2]: 0.51; RF, Methanol/Water/Hydrochloric acid (conc.), mobile phase VI [2]: 0.45; RF, Acetone/Water/Hydrochloric acid (conc.), mobile phase VII [2]: 0.42; RF, Methanol/Water/Hydrochloric acid (conc.), mobile phase VII [2]: 0.38; RF, Acetone/Water/Hydrochloric acid (conc.), mobile phase VIII [2]: 0.35; RF, Methanol/Water/Hydrochloric acid (conc.), mobile phase VIII [2]: 0.31
Clc1ccc2c(N3CCN(CCC45CC6CC(CC(C6)C4)C5)CC3)ccnc2c1 [Compound 21]	6.0 ± 2.0	15 ± 5	2.7	2.1	2.1 ± 0.4	5.6	5.6 ± 0.6	1.611	2.562	0.7539	1.607	2.219	2.906	0.68	0.73	0.65	0.59	0.71	0.51	0.71	RF, Acetone/Water/Hydrochloric acid (conc.), mobile phase IV [2]: 0.53; RF, Methanol/Water/Hydrochloric acid (conc.), mobile phase IV [2]: 0.51; RF, Acetone/Water/Hydrochloric acid (conc.), mobile phase IX [2]: 0.17; RF, Methanol/Water/Hydrochloric acid (conc.), mobile phase IX [2]: 0.12; RF, Dioxane/Water/Hydrochloric acid (conc.), mobile phase V [2]: 0.52; RF, Acetone/Water/Hydrochloric acid (conc.), mobile phase V [2]: 0.44; RF, Methanol/Water/Hydrochloric acid (conc.), mobile phase V [2]: 0.45; RF, Dioxane/Water/Hydrochloric acid (conc.), mobile phase VI [2]: 0.39; RF, Acetone/Water/Hydrochloric acid (conc.), mobile phase VI [2]: 0.4; RF, Methanol/Water/Hydrochloric acid (conc.), mobile phase VI [2]: 0.36; RF, Acetone/Water/Hydrochloric acid (conc.), mobile phase VII [2]: 0.35; RF, Methanol/Water/Hydrochloric acid (conc.), mobile phase VII [2]: 0.27; RF, Acetone/Water/Hydrochloric acid (conc.), mobile phase VIII [2]: 0.29; RF, Methanol/Water/Hydrochloric acid (conc.), mobile phase VIII [2]: 0.18
